Experimental findings from ChEMBL document CHEMBL1144912, “Anticancer activity of phenolic acids of natural or synthetic origin: a structure-activity study” (2003) are described below.

The structures appear in SMILES notation.

Experiment [1] concerns HeLa. Kind of experiment: Cytotoxic effect of compound measured as cell density of HeLa cells 72 hrs after incubation with compound compared to a initial density of […] cells/mL. Format: functional, Homo sapiens.
The test system of experiment [2] is MDA-MB-231. The experiment is described as follows: Percent reduction in cell viability of MDA-MB-231 cells 48 hr after incubation with compound. Format: functional, Homo sapiens.
Experiment [3] has as its system MOLT-3. The experiment is described as follows: Percent reduction in cell viability of MOLT-3 cells 48 hr after incubation with the compound. The experiment is classed as functional, Homo sapiens.
Experiment [4] deals with MOLT-3. Kind of experiment: Percent reduction in cell viability of MOLT-3 cells 72 hr after incubation with 50 uM of compound. Format: functional, Homo sapiens.
Experiment [5] relates to MDA-MB-231. The experiment is described as follows: Percent reduction in cell viability of MDA-MB-231 cells 72 hr after incubation with compound. Format: functional, Homo sapiens.
In experiment [6] the test system is MOLT-3. Kind of experiment: Percent reduction in cell viability of MOLT-3 cells 72 hr after incubation with 100 uM of compound. Format: functional, Homo sapiens.
For experiment [7], the system named is HeLa. The experiment is described as follows: Percent reduction in cell viability of HeLa cells 72 hr after incubation with 100 uM of compound. The experiment is classed as functional, Homo sapiens.
In experiment [8] the test system is L132. The experiment is described as follows: Percent reduction in cell viability of L-132 cells 72 hr after incubation with 100 uM of compound. The experiment is classed as functional, Homo sapiens.
Experiment [9] relates to MOLT-3. The experiment is described as follows: Percent reduction in cell viability of MOLT-3 cells 72 hr after incubation with the compound. The experiment is classed as functional, Homo sapiens.
Experiment [10] deals with HeLa. Kind of experiment: Percent reduction in cell viability of HeLa cells 72 hr after incubation with compound. Format: functional, Homo sapiens.
The subject of experiment [11] is L132. Kind of experiment: Concentration for low cytotoxic activity against L-132 cell line; Range is 50-100 uM. The experiment is classed as functional, cell-based. As to conditions: Homo sapiens.
The test system of experiment [12] is MOLT-3. The experiment is described as follows: Concentration for low cytotoxic activity against MOLT-3 cell line; Range is 50-100 uM. Format: functional, cell-based. Particulars: Homo sapiens.
For experiment [13], the system named is MDA-MB-231. Kind of experiment: Concentration for low cytotoxic activity against MDA-MB-231 cell line; Range is 50-100 uM. As to conditions: Homo sapiens. Format: functional, cell-based.
Experiment [14] deals with HeLa. The experiment is described as follows: Concentration for low cytotoxic activity against HeLa cell line; Range is 50-100 uM. Format: functional, cell-based. As to conditions: Homo sapiens.

Turning to `O=C(O)CCc1ccc(O)c(O)c1` [DIHYDROCAFFEIC ACID], the Cell density with HeLa [1] came to 500000 cells ml-1.

As for `O=C(O)CCc1cc(O)c(O)c(O)c1`, the Reduction in the experiment with MDA-MB-231 [2] came to 55%; in the experiment with MOLT-3 [3], 45%.

`O=C(O)Cc1ccc(O)c(O)c1` [3,4-DIHYDROXYPHENYLACETIC ACID] came in with a Reduction in the experiment with MOLT-3 [4] of 75%.

`O=C(O)Cc1cc(O)c(O)c(O)c1`: the Reduction with MDA-MB-231 [5] was determined as 60%; in the experiment with MOLT-3 [6] it was 47%; in the experiment on HeLa [7], 80%; with L132 [8], 50%.

In the case of `O=C(O)c1cc(O)c(O)c(O)c1` [GALLIC ACID], the Reduction in the experiment with MOLT-3 [9] amounted to 50%; in the experiment with MDA-MB-231 [5], 65%; in the experiment on HeLa [10], 74%.

For the molecule `O=C(O)/C=C/c1ccc(O)c(OO)c1`, the Concentration in the experiment on L132 [11], in the experiment with MOLT-3 [12], in the experiment with MDA-MB-231 [13] and in the experiment with HeLa [14] was 100 µM in each case.
